Assay results taken from patent publication US20240082274A1, “FUNGAL COMPOUND COMPOSITIONS AND METHODS FOR MODULATING INFLAMMATION” (TURTLE BEAR HOLDINGS, LLC, priority 2021, published 2024).

What was measured:
JNK3 (MAPK10) = biological target: T1, JNK3 (MAPK10) (Homo sapiens, UniProt P53779); test: MAPK binding affinity screen (DiscoveRx); settings: component alone
T1 construct: purchased DiscoveRx

5-HT2A receptor = 5-HT2A receptor (Homo sapiens, UniProt P28223); settings: Flanagan and Nichols, 2018; cited from earlier work
[1] = Flanagan and Nichols, 2018; cited from earlier work
[2] = biological target: T2, JAK1 (JH1domain-catalytic) (Homo sapiens, UniProt P23458); test: MAPK binding affinity screen (DiscoveRx); settings: component alone
T2 construct: (JH1domain-; purchased DiscoveRx

p38-alpha (MAPK14) = biological target: T3, p38-alpha (MAPK14) (Homo sapiens, UniProt Q16539); test: MAPK binding affinity screen (DiscoveRx); settings: component alone
T3 construct: purchased DiscoveRx

TRKA (NTRK1) = biological target: T4, TRKA (NTRK1) (Homo sapiens, UniProt P04629); test: MAPK binding affinity screen (DiscoveRx); settings: component alone
T4 construct: purchased DiscoveRx

TRKB (NTRK2) = biological target: T5, TRKB (NTRK2) (Homo sapiens, UniProt Q16620); test: MAPK binding affinity screen (DiscoveRx); settings: component alone, row of combination at 5 μg/mL
T5 construct: purchased DiscoveRx

IL-10 = IL-10 expression in human PBMCs under standard non-inflammatory conditions; format: cell-based; settings: at multiple concentrations
Procedure: In a separate experiment, human peripheral blood mononuclear cells (PBMCs) were treated with different concentrations of norbaeocystin, norpsilocin, and vehicle control under standard non-inflammatory conditions, and IL-10 expression was measured.

IL-6 = settings: human PBMCs, 100 ng/mL LPS; 0.43 μg/mL; FIG. 12
Procedure: Human PBMCs were treated with 100 ng/mL LPS to induce inflammatory conditions.

ROCK2 = biological target: T6, ROCK2 (Homo sapiens, UniProt O75116); test: MAPK binding affinity screen (DiscoveRx); settings: component alone, row of combination at 62.5 μg/mL
T6 construct: purchased DiscoveRx

[3] = cited from earlier work
PC12 cells = test: Neurite outgrowth in rat PC12 cells; format: cell-based; settings: 6 days
Excerpt: Rat PC12 cells are a cell line derived from rat pheochromocytoma and are an immortalised cell line similar to the primary culture of fetal neurons. These cells are relatively easy to passage and culture and have some features of neurons, which makes them useful in the study of nerve physiology and pharmacology.

MAPK = MAPK binding screen, general statements; settings: low ng concentrations
Excerpt: It was identified that many combination formulations of tryptamines, He/PEP/Erinacine C, and niacin can interact with several mitogen-activated protein kinases (MAPKs) involved with brain health and can even provide synergistic benefits (Tables 7-8).
It was surprising and unexpected that such dilute psilocin at low ng concentrations produced a synergistic effect on MAPK binding when combined with other components because these low concentrations had no effect on MAPK binding when used alone. Therefore, one would have expected these low concentrations to be ineffective. The low concentrations also overcome the pharmacodynamic issues faced when using high concentrations of psilocin.

TNF-α = TNF-α expression in LPS-induced human PBMCs; format: cell-based; settings: 100 ng/mL LPS, individual components, FIG. 13
MAO-A = biological target: T7, MAO-A (Homo sapiens, UniProt P21397); settings: Herraiz et al., 2010; cited from earlier work
T7 sequence (P21397 1-527): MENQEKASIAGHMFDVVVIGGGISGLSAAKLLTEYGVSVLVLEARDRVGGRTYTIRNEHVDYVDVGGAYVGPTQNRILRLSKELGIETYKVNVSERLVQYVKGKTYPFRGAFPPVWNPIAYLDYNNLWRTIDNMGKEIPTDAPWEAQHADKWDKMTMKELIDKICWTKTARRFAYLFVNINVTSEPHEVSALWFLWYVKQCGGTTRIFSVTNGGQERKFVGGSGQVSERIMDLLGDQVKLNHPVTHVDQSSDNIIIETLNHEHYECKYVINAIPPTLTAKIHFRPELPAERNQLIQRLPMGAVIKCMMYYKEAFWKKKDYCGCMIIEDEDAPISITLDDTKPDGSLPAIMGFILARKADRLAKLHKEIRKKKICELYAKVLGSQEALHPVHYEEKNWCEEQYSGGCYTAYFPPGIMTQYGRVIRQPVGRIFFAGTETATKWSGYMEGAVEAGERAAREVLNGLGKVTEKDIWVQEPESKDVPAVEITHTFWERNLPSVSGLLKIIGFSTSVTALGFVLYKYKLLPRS

MAO-B = biological target: T8, MAO-B (Homo sapiens, UniProt P27338); settings: Herraiz et al., 2010; cited from earlier work
T8 sequence (P27338 1-520): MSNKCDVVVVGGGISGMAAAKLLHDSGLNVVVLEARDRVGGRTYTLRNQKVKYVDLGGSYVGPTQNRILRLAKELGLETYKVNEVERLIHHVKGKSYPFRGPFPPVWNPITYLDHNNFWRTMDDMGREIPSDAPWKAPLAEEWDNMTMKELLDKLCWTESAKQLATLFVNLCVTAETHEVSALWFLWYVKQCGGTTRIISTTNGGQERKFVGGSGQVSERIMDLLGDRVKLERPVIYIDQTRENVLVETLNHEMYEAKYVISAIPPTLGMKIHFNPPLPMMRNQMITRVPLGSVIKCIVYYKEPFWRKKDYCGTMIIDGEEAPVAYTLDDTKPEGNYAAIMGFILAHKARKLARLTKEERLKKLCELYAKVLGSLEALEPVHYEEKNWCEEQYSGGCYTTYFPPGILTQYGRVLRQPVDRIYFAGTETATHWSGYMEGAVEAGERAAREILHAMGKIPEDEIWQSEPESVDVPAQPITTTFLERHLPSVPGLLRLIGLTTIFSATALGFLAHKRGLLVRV

[4] = row of combination at 3, 0.2 ng/mL
[5] = row of combination at 16, 16 ng/mL
[6] = row of combination at 125 μg/mL
[7] = row of combination at 2.5 μg/mL
[8] = row of combination at 0.6, 0.6 ng/mL
[9] = row of combination at 250 μg/mL

T1 sequence (P53779 whole entry): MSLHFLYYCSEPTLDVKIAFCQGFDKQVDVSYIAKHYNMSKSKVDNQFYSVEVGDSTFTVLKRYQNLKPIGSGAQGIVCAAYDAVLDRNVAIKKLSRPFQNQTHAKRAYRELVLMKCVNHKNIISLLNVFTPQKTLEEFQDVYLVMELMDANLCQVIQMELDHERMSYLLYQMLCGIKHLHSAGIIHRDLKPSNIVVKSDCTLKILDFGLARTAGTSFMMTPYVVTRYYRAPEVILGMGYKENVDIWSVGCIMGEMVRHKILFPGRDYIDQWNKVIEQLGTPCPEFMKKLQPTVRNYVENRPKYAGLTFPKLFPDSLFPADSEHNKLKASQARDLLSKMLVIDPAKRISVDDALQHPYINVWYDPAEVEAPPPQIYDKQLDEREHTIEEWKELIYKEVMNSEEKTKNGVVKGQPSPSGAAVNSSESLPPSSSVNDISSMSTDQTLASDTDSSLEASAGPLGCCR
T4 sequence (P04629 33-796): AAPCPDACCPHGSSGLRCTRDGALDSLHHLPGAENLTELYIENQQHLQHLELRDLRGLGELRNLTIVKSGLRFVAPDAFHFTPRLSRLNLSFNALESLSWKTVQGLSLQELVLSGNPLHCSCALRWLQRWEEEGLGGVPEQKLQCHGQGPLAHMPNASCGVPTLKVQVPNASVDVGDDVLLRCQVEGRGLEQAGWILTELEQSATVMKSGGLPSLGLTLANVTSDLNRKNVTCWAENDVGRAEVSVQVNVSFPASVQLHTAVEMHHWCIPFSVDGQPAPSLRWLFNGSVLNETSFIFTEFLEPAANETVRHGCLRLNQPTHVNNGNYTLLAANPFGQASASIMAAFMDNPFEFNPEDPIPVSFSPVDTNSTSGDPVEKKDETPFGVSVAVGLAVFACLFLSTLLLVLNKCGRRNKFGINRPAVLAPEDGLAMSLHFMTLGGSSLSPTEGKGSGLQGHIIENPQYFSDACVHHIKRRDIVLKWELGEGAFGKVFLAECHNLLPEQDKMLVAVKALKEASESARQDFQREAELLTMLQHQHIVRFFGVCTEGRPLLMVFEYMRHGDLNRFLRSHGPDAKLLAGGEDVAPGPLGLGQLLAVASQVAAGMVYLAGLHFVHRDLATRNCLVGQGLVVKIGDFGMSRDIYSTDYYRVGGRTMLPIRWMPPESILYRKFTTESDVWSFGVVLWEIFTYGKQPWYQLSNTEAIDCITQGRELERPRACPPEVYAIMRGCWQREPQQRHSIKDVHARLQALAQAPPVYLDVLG
T2 sequence (P23458 875-1153 limits assumed): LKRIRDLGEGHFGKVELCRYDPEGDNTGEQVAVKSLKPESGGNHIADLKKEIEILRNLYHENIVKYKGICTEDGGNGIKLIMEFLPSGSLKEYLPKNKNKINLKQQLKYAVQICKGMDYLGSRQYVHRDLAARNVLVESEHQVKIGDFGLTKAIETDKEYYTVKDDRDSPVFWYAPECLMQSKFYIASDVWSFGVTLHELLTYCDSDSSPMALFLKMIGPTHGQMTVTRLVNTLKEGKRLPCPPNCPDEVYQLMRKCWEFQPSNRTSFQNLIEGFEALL
T3 sequence (Q16539 whole entry): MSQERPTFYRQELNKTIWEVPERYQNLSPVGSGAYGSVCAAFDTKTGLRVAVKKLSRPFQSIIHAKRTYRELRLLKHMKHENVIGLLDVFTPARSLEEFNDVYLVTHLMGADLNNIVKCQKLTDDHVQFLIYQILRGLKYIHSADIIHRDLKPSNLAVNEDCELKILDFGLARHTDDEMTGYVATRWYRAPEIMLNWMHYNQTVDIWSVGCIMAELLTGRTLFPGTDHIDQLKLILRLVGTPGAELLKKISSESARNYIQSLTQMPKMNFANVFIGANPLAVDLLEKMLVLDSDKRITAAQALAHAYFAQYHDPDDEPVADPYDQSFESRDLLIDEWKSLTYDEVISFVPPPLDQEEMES
T5 sequence (Q16620 32-822): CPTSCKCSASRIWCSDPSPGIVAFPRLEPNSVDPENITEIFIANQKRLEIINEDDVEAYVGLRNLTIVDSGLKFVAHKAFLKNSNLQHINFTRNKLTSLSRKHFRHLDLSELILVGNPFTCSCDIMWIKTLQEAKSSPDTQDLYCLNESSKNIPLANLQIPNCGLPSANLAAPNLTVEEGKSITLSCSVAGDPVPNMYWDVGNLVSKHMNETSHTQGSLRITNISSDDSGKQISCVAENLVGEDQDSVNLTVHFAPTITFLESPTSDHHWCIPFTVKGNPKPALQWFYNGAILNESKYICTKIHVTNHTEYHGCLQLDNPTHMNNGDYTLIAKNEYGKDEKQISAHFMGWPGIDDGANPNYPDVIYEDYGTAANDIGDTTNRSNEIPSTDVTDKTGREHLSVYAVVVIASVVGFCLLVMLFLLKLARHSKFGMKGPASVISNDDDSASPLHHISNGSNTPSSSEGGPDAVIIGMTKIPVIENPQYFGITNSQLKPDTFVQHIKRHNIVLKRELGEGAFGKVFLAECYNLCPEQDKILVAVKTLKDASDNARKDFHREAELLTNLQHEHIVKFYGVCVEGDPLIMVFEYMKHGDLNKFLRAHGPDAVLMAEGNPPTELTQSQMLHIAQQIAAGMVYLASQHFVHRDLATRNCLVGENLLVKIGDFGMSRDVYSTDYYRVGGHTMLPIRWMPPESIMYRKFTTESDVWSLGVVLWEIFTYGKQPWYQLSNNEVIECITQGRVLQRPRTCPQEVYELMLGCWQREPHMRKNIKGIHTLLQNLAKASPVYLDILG
Sequence of 5-HT2A receptor (P28223 whole entry): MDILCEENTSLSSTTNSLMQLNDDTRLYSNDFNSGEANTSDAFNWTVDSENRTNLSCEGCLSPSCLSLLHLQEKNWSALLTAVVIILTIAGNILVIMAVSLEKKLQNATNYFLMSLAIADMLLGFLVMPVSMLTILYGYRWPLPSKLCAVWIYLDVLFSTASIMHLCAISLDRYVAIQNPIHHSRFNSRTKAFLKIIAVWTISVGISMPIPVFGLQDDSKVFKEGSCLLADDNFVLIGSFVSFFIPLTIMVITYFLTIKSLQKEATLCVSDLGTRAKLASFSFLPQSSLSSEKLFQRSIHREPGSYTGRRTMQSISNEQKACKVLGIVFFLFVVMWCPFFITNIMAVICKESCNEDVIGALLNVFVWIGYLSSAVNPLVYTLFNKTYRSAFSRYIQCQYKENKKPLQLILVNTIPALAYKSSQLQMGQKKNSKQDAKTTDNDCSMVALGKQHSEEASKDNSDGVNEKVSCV
T6 sequence (O75116 whole entry): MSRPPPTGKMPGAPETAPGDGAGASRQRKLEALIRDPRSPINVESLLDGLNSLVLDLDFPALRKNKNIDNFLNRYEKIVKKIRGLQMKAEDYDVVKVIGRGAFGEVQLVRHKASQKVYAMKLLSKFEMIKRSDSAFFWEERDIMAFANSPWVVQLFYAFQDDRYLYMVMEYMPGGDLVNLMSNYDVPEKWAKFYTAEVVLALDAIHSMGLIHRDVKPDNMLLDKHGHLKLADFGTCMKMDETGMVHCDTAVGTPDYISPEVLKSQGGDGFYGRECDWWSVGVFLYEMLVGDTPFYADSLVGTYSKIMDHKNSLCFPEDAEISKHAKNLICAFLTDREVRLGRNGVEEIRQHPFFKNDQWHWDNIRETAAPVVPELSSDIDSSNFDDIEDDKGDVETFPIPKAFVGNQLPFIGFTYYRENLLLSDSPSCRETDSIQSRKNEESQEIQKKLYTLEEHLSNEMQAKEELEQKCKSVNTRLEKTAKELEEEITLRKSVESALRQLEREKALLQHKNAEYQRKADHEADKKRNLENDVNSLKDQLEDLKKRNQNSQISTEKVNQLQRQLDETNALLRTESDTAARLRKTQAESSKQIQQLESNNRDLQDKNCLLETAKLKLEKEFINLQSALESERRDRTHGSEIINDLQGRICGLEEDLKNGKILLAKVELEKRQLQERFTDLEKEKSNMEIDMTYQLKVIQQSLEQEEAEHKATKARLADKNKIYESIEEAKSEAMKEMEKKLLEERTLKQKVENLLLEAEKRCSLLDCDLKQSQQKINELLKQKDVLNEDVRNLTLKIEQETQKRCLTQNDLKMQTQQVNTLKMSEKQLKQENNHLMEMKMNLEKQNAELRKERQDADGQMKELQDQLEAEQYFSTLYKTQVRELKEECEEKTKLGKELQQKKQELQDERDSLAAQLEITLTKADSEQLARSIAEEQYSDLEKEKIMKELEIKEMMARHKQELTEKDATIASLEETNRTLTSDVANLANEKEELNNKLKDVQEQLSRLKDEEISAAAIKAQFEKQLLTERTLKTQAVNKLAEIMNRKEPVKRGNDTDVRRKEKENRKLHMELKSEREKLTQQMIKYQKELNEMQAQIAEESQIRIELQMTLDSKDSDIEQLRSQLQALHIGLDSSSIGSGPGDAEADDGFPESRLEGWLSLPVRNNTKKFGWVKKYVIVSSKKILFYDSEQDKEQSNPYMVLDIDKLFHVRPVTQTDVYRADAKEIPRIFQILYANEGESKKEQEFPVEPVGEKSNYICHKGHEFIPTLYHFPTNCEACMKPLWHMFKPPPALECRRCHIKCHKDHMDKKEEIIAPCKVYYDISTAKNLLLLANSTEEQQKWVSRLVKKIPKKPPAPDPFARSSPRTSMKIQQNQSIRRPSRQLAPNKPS

Q: With `CC(C)C1=C2C3=CC=C(CO)[C@H]4O[C@H]5[C@@H](OC[C@@H](O)[C@@H]5O)O[C@@H]4[C@]3(C)CC[C@@]2(C)CC1` [Erinacine C] as the molecule, how does the “MAPK binding affinity value of individual component” value (shortened to “MAPK binding affinity value”) (JNK3 (MAPK10); [4]) read?
A: Its value is 6.

Q: Which 5-HT2A receptor activation (5-HT2A receptor) does the source give for `COc1cc(C[C@@H](C)N)c(OC)cc1I` [(R)-2,5-dimethoxy-4-iodoamphetamine] here?
A: The 5-HT2A receptor activation was “activate the 5-HT2A receptor”.

Q: And the “inflammation in the lungs” value [1]?
A: Its value is “prevent and reverse inflammation in the lungs”.

Q: Which “MAPK binding affinity value” value [2, 5] does the source give for `CN(C)CCc1c[nH]c2ccccc12` [DMT, N,N-dimethyltryptamine] here?
A: Its value is 5.

Q: Which results are given for `NCCc1c[nH]c2cccc(OP(=O)(O)O)c12` [Norbaeo, 4-phosphoryloxy-tryptamine]?
A: MAPK binding affinity value of individual component (p38-alpha (MAPK14); combinations at 2.5 μg/mL): 22; MAPK binding affinity value of individual component (p38-alpha (MAPK14); combinations at 5 μg/mL): 12; MAPK binding affinity value of individual component (p38-alpha (MAPK14); combinations at 10 μg/mL): 17; MAPK binding affinity value of individual component (JNK3 (MAPK10); row of combination at 5 μg/mL): 4; MAPK binding affinity value of individual component (JNK3 (MAPK10); [6]): 4; MAPK binding affinity value of individual component (TRKA (NTRK1); combinations at 250 μg/mL): 3; MAPK binding affinity value of individual component (TRKB (NTRK2)): 0; MAPK binding affinity value of individual component [2, 7]: 3; MAPK binding affinity value of individual component ([2]; rows of combinations at 62.5 μg/mL): 3; expression of the anti-inflammatory cytokine IL-10 (IL-10): significantly upregulate; IL-6 expression (IL-6): significantly reduced

Q: With `CNCCc1c[nH]c2cccc(OP(=O)(O)O)c12` [Baeo, 4-phosphoryloxy-N-methyltryptamine] as the molecule, how does the “MAPK binding affinity value” value (p38-alpha (MAPK14); combinations at 2.5 μg/mL) read?
A: Its value is 2.

Q: What about the “MAPK binding affinity value” value (p38-alpha (MAPK14); combinations at 5 μg/mL) of the same molecule?
A: Its value is 9.

Q: And the “MAPK binding affinity value” value (p38-alpha (MAPK14); combinations at 10 μg/mL)?
A: Its value is 1.

Q: What about the “MAPK binding affinity value” value (p38-alpha (MAPK14); combinations at 250 μg/mL) of the same molecule?
A: Its value is 1.

Q: And the “MAPK binding affinity value” value (JNK3 (MAPK10); [6])?
A: Its value is 8.

Q: What about the “MAPK binding affinity value” value (TRKA (NTRK1); combinations at 250 μg/mL) of the same molecule?
A: The value was 6.

Q: And the “MAPK binding affinity value” value (TRKA (NTRK1); [6])?
A: Its value is 3.

Q: What about the “MAPK binding affinity value” value (TRKB (NTRK2)) of the same molecule?
A: Its value is 12.

Q: What about the “MAPK binding affinity value” value [2, 7] of the same molecule?
A: The value was 1.

Q: And the “MAPK binding affinity value” value (ROCK2)?
A: The value was 0.

Q: What about the “hallucinogenic effect after consumption” value ([3]; 4 mg, anecdotal, Gartz 1991) of the same molecule?
A: Its value is “gentle hallucinogenic experience”.

Q: What about the “hallucinogenic effect after oral consumption” value ([3]; 10 mg and 20 mg, case studies) of the same molecule?
A: Its value is “did not produce any hallucinogenic effects”.

Q: With `CN(C)CCc1c[nH]c2cccc(O)c12` [Psilocin, 4-hydroxy-N,N-dimethyltryptamine] as the molecule, how does the “MAPK binding affinity value” value (JNK3 (MAPK10); [8]) read?
A: The value was 1.

Q: What about the “MAPK binding affinity value” value (JNK3 (MAPK10); [4]) of the same molecule?
A: The value was 2.

Q: What about the “MAPK binding affinity value” value ([2]; row of combination at 30, 1.8 ng/mL) of the same molecule?
A: The value was 1.

Q: And the “highest mean neurite outgrowth, of vehicle control” value (PC12 cells; 0.043 μg/mL)?
A: Its value is 168%.

Q: What about the “effect on MAPK binding when used alone” value (MAPK) of the same molecule?
A: The value was “no effect”.

Q: For `O=C(O)c1cccnc1` [Niacin, nicotinic acid, reference compound], which “MAPK binding affinity value” value (JNK3 (MAPK10); [8]) is on record?
A: The value was 0.

Q: What about the “MAPK binding affinity value” value [2, 9] of the same molecule?
A: Its value is 6.

Q: And the “MAPK binding affinity value” value [2, 5]?
A: The value was 5.

Q: And the “highest mean neurite outgrowth, of vehicle control” value (PC12 cells; 0.35 μg/mL)?
A: The value was 112%.

Q: And the “anti-inflammatory effect (TNF-α expression)” value (TNF-α)?
A: Its value is “have anti-inflammatory effects at certain concentrations”.

Q: For `COc1ccc2c3c([nH]c2c1)C(C)=NCC3` [harmaline, 3,4-dihydro-7-methoxy-1-methyl-carboline], which MAO-A inhibition (MAO-A) is on record?
A: The MAO-A inhibition was “specific MAO-A inhibitors”.

Q: What about the MAO-B inhibition (MAO-B) of the same molecule?
A: Its MAO-B inhibition is “poor inhibitors of MAO-B”.

Q: For `COc1ccc2c(c1)[nH]c1c(C)nccc12` [Harmine, 7-methyoxy-1-methyl-carboline], which MAO-A inhibition (MAO-A) is on record?
A: Its MAO-A inhibition is “specific MAO-A inhibitors”.

Q: What about the MAO-B inhibition (MAO-B) of the same molecule?
A: Its MAO-B inhibition is “poor inhibitors of MAO-B”.

Q: Which results are given for `CNCCc1c[nH]c2cccc(O)c12` [Norpsilo, 4-hydroxy-N-methyl-tryptamine]?
A: MAPK binding affinity value of individual component (p38-alpha (MAPK14); combinations at 2.5 μg/mL): 15; MAPK binding affinity value of individual component (p38-alpha (MAPK14); combinations at 5 μg/mL): 1; MAPK binding affinity value of individual component (p38-alpha (MAPK14); combinations at 10 μg/mL): 21; MAPK binding affinity value of individual component (p38-alpha (MAPK14); combinations at 250 μg/mL): 21; MAPK binding affinity value of individual component (JNK3 (MAPK10); row of combination at 5 μg/mL): 19; MAPK binding affinity value of individual component [2, 9]: 0; expression of the anti-inflammatory cytokine IL-10 (IL-10): significantly upregulate; anti-inflammatory effect (TNF-α expression) (TNF-α): have anti-inflammatory effects at certain concentrations
